Data published in patent publication EP2407164A1, “Copper II complexes of phenanthroline and their use in cancer treatment” (Dublin Institute of Technology Intellectual Property Ltd, priority 2010, dated 2012).

Tests used:
[1] = system: SW480; experiment: MTT cytotoxicity assay, complex 7; format: cell-based; conditions: SW480 (Dukes' B) colon cancer line, 24 hr
Description: (§1) For cytotoxicity evaluation HT29, SW480 and SW620 cell lines were employed; all the cell lines were grown in RPMI 1640 media (Fischer). All media were supplemented with 10% foetal bovine serum (FBS) and 45 IU/ml penicillin and 45 µg/ml streptomycin and cells were maintained at 37 °C in a 5% CO2 humidified incubator.
(§2) For sterilisation samples were filtered with a 0.2 micron cellulose acetate filter. For cytotoxicological evaluation all samples were prepared fresh on the day of exposure. A stock concentration of test compound was prepared in the exposure media (10% DMEM F-12) necessary for the cell line under test. This sample was vortexed to ensure a uniform dispersion of the compound under test.
(§3) For cytotoxicity assays cells were seeded in 96-well microplates (Nunc, Denmark) at a density of 1 x 10^5 cells/ml for the 24 hr test, 5 x10^4 cells/ml for the 48 hr test and 3 x 10^4 cells/ml for the 96 hr test. […] After 24 h of cell attachment, plates were washed with 100 µl/well phosphate buffered saline (PBS) and the cells were treated with increasing concentrations of each compound for 24 h. Six replicate wells were used for each control and test concentration per microplate. Following the desired time of compound exposure, control medium or test exposures were removed, the cells were rinsed with PBS and 100 µl of fresh medium (without FBS or supplements) was added to each well. 10 µl of MTT (5 mg/ml) prepared in PBS was then added to each well and the plates were incubated for 3 h at 37°C in a 5% CO2 humidified incubator. After this incubation period the medium was discarded, the cells were washed with 100 µl of PBS and 100 µl of DMSO was added to each well to extract the dye. The plate was shaken at 240 rpm for 10 min and the absorbance was measured at 570 nm.
(§4) At least three independent experiments were conducted in triplicate for each cell line and toxicity endpoint. […] Control values were set as 100%. Differences between samples and the control were evaluated using the statistical analysis package SPSS 14.0. Statistically significant differences were set at p≤0.05.

[2] = system: SW620; experiment: MTT cytotoxicity assay, complex 7; format: cell-based; conditions: SW620 (Dukes' C) colon cancer line, 24 hr
Description: as §1, §2, §3, §4

[3] = system: HT29; experiment: MTT cytotoxicity assay, complex 7; format: cell-based, Human; conditions: HT29 colon cancer line, 24 hr
Description: as §1, §2
For cytotoxicity assays cells were seeded in 96-well microplates (Nunc, Denmark) at a density of 1 x 10^5 cells/ml for the 24 hr test, 5 x10^4 cells/ml for the 48 hr test and 3 x 10^4 cells/ml for the 96 hr test. […] After 24 h of cell attachment, plates were washed with 100 µl/well phosphate buffered saline (PBS) and the cells were treated with increasing concentrations of each compound for 24 h. […] The plate was shaken at 240 rpm for 10 min and the absorbance was measured at 570 nm.
At least three independent experiments were conducted in triplicate for each cell line and toxicity endpoint. […] Differences between samples and the control were evaluated using the statistical analysis package SPSS 14.0. […]

[4] = system: pUC18; experiment: Nuclease activity: relaxation of supercoiled plasmid DNA, agarose gel; format: biochemical; conditions: 37 °C; for concentration at which nuclease activity is seen: supercoiled pUC18, 5 hours, no added H2O2, oxidant or reductant
Description: Nuclease Activity. Reactions were carried out in a total volume of 20 µL in 0.1 M cacodylate buffer (pH = 6.0) with either 0.5, 2.5, 10 µL of 40 µM complex or 2, 5, 10 µL of 200 µM of complex, which were initially prepared in DMF, then diluted in cacodylate buffer (in which they dissolved), with 1 µL of 0.25 µg/µL pUC18 in cacodylate buffer. The resulting mixtures contained 1, 5, 10, 20, 50 and 100 µM of complex and […] of pUC18. Samples were incubated for 5 hr at 37°C. Quench buffer (3 µL; 0.25% bromophenolblue, 0.25% xylene cyanole and 30% glycerol) was then added and samples were loaded onto agarose gel (0.8%) containing 1.5 µL/100 mL of solution of GelRed™ (10,000X). Electrophoresis was completed at 80 V for 2 hr in 1XTAE buffer.

[5] = system: CT-DNA; experiment: Competitive ethidium bromide displacement; format: binding, calf; conditions: for Kapp (apparent binding constant): Kapp = Ke x 1.26/C50 where Ke = 9.5 x 10^6 M(bp)^-1; for Kapp (apparent binding constant) / IC50: 1.2 µM EtBr, 1 µM CT-DNAp, pH 7.0; for IC50: final volume 2 mL, 10 mM TES, 0.1 mM Na2EDTA, read-out: C50 = concentration required to reduce fluorescence by 50%
Description: Competitive Ethidium Displacement. […] Complexes 4-6, actinomycin D, pentamidine isethionate were prepared at 2.0 mM in DMSO. Two millilitres of DNA-Et solution were placed in a 10-mm quartz cuvet (3 mL) and positioned in a temperature controlled (20°C) spectrofluorometer (Perkin Elmer LS55B Luminescence Spectrometer). Excitation and emission wavelengths were set to 546 and 595 nm, respectively. After thermal equilibrium was established the emission and excitation slits were modified to give a fluorescence reading of 50 arbitrary units with measurements being recorded over a 20-s interval. An aliquot of complex or drug solution was taken (0.5 - 10 µL), was added to the cuvette and after equilibration the fluorescence reading was recorded. Repeated aliquots were added until the fluorescence was 20-40% of the initial control. Triplicate titrations were preformed and the apparent binding constants were calculated using Kapp = Ke x 1.26/C50 where Ke = 9.5 x 10^6 M(bp)^-1.

[6] = system: CT-DNA; experiment: DNA-ethidium fluorescence quenching; format: binding, calf; conditions: Q = equivalent concentration required to reduce fluorescence by 50%; 2.0 µM EtBr, 20 µM DNAp, 2 mM NaOAc buffer, 9.3 mM NaCl, pH 5.0
Description: (§5) DNA-Ethidium Fluorescence Quenching. Working solutions containing 20 µM poly[d(AT)]2 (ε260 = 13,100 M(bp)^-1 cm^-1), poly[d(G-C)]2 (ε260 = 16,800 M(bp)^-1 cm^-1) and CT-DNAp (ε260 = 12,824 M(bp)^-1 cm^-1) along with 2.0 µM Et in NaOAc buffer (2 mM NaOAc, 9.3 mM NaCl, 0.1 mM Na2EDTA, pH = 5.0) were prepared. Subsequent experimental steps are identical to the displacement experiment with the exception that a fluorescence reading of 200 arbitrary units with measurements being recorded over a 20-s interval was used. From a plot of the fluorescence vs added drug concentration, the Q values is given by the concentration required to effect 50% removal of the initial fluorescence.

[7] = system: four Human-derived tumor lines; experiment: MTT assay, summary statements over the four tumor lines; format: cell-based; conditions: MCF-7, DU145, SK-OV-3, HT29, 24 hours
Description: (§6) Human colon cancer cell line, HT29 (passage 17 to 30, ATCC, USA), was grown in McCoys's 5a medium supplemented with 2mM L-glutamine and fetal bovine serum (FBS) 10% and containing 100U/ ml penicillin and 100µg / ml streptomycin at 37°C in a humidified atmosphere with 5% CO2 Human Breast Cancer cell line, MCF-7 (passage 16 to 26, ATCC, USA) was grown in Eagle's minimum essential medium containing 2mM L-glutamine, 100U/ ml penicillin,100µg/ ml streptomycin, FBS (10%), 1mM sodium pyruvate and 1% (v/v) non essential amino acids at 37°C in a humidified atmosphere with 5% CO2 Human prostate cancer cell line, DU145 (passage 12 to 29, ATCC, USA) was grown in Eagle's minimum essential medium containing 2mM L-glutamine, 100U/ ml penicillin, 100µg/ ml streptomycin, FBS (10%), 1mM sodium pyruvate and 1% (v/v) non essential amino acids at 37°C in a humidified atmosphere with 5% CO2. All drugs were tested by MTT assay following 24-hour exposure of cells to each compound. Each value represents the mean IC50 of three independent experiments +/- standard error.
MTT Assay. This method is based on the reduction of the tetrazolium salt, methylthiazolyldiphenyl-tetrazolium bromide (MTT) into a crystalline blue formazan product by the cellular oxidoreductases of viable cells. […] The plates were then shaken for 2 min and the absorbance was read at 550 nm in a Varioscan plate reader. […]

[8] = system: poly[d(G-C)]2; experiment: DNA-ethidium fluorescence quenching; format: binding; conditions: Q = equivalent concentration required to reduce fluorescence by 50%; 2.0 µM EtBr, 20 µM DNAp, 2 mM NaOAc buffer, 9.3 mM NaCl, pH 5.0
Description: as §5

[9] = system: poly[d(A-T)]2; experiment: DNA-ethidium fluorescence quenching; format: binding; conditions: Q = equivalent concentration required to reduce fluorescence by 50%; 2.0 µM EtBr, 20 µM DNAp, 2 mM NaOAc buffer, 9.3 mM NaCl, pH 5.0
Description: as §5

[10] = system: HT29; experiment: MTT cytotoxicity assay, complexes 1-6; format: cell-based, Human; conditions: HT29 colon cancer, 24 hr exposure, mean of three independent experiments +/- standard error
Description: as §6
(§7) MTT Assay. This method is based on the reduction of the tetrazolium salt, methylthiazolyldiphenyl-tetrazolium bromide (MTT) into a crystalline blue formazan product by the cellular oxidoreductases of viable cells. The resultant formazan crystal formation is proportional to the number of viable cells. Cells were seeded at 4x 10^5 cells/ml in 96-well plates and incubated at 37°C in 5% CO2 for 24 hours. Cells were treated with a four log range of concentration of the test compounds in triplicate from 0.1 to 500 µM or with a solvent control (0.5% DMSO) in complete medium. Following 24 h incubation, cells were incubated with 20 µl of MTT (5 mg/ml) in 0.1 M PBS, pH 7.4 at 37 °C in a humid atmosphere with 5% CO2 for 4 h. Media was then gently aspirated from test cultures and 100 µL of dimethyl sulphoxide (DMSO) was added to all wells. The plates were then shaken for 2 min and the absorbance was read at 550 nm in a Varioscan plate reader. The IC50 was defined as the concentration of test compound required to reduce the absorbance of the MTT-formazan crystals by 50%, indicating 50% cell deactivation.

[11] = system: DU145; experiment: MTT cytotoxicity assay, complexes 1-6; format: cell-based, Human; conditions: DU145 prostate cancer, 24 hr exposure, mean of three independent experiments +/- standard error
Description: as §6, §7

[12] = system: MCF-7; experiment: MTT cytotoxicity assay, complexes 1-6; format: cell-based, Human; conditions: MCF-7 breast cancer, 24 hr exposure, mean of three independent experiments +/- standard error
Description: as §6, §7

[13] = system: SK-OV-3; experiment: MTT cytotoxicity assay, complexes 1-6; format: cell-based, Human; conditions: SK-OV-3 ovarian cancer, 24 hr exposure, mean of three independent experiments +/- standard error
Description: as §7
Cu(II) bis-phen complexes 4-6 display rapid, low micomolar toxicities against all tumor lines. […] It should be noted that 6 is dinuclear and so contains two active copper units, which may explain this heightened potency.

[14] = Solubility in organic solvents; conditions: DMSO/DMF

Substance	Activity LD50 [1]	Activity LD50 [2]	Activity LD50 [3]	'self-activating' nuclease activity (relaxation of SC pUC18), in words ([4]; 1-100 µM complex, 5 hours, no added H2O2 or reductant)	concentration at which nuclease activity is seen [4]	Kapp (apparent binding constant) [5]	DNA binding ability, in words ([5]; competitive EtBr displacement with CT-DNA)	IC50 [5]	IC50 [6]	cytotoxicity against all tumor lines, in words [7]	IC50 [8]	IC50 [9]	IC50 [10]	IC50 [11]	IC50 [12]	IC50 [13]	Solubility [14]
[Cu2(oda)(phen)4](ClO4)2.2.67H2O.C2H5OH [Complex 7]	11.3 µM	31 µM	9.61 µM	highly efficient in the cleavage of plasmid DNA	≥ 10 µM	2.55x10^5 M(bp)^-1	efficient ability to bind with calf thymus DNA	46.9 µM	22.6 µM								
[{Cu{(phen)2}2(terph)](terph)10H2O.3EtOH [Complex 6]					1 to 5 µM	3.04x10^5 M(bp)^-1		39.4 µM		best broad-spectrum activity	10.3 µM	8.55 µM	5.4 ± 0.3 µM	5.7 ± 0.2 µM	7.9 ± 0.4 µM	6.7 ± 0.4 µM	forms only suspensions in DMSO/DMF
